Test results taken from patent US10407396B2, “Crystalline form of selexipag” (Apotex Inc., priority 2017, dated 2019).

What was measured:
[1] = drug substance in UPTRAVI, per AusPAR, cited from earlier work
[2] = PXRD study of crystal form stability on storage; format: physicochemical; conditions: sealed vial under nitrogen atmosphere, room temperature and ambient humidity
Protocol: Selexipag Form APO-I can be characterized by a PXRD diffractogram comprising, among other peaks, characteristic peaks, expressed in degrees 2θ (±0.2°), at 7.5°, 12.4° and 21.7°. Preferably, the PXRD diffractogram further comprises at least three peaks, expressed in degrees 2θ (±0.2°), selected from the group consisting of 9.4°, 11.6°, 14.1°, 15.1°, 16.7°, 17.2°, 18.3°, 19.9°, 22.3° and 23.6°. More preferably, the PXRD diffractogram further comprises peaks, expressed in degrees 2θ (±0.2°), at 9.4°, 11.6°, 14.1°, 15.1°, 16.7°, 17.2°, 18.3°, 19.9°, 22.3° and 23.6°. PXRD studies of samples of Selexipag Form APO-I maintained under a nitrogen atmosphere in a sealed vial have shown that this crystal form is stable following storage at room temperature and ambient humidity for at least 14 days. PXRD diffractograms were recorded on a Bruker D8 Discover powder X-ray diffractometer (Bruker-AXS, Karlsruhe, Germany). The generator was a Micro-focus X-ray source (IMSTube: Cu tube with 1.54184 Å) with a voltage of 50 kV and current of 1.00 mA, using a divergence slit of 0.3 mm and collimator of 0.3 mm. For each sample, one frame was collected using a still scan with a Pilatus 3R-100 kA detector at the distance of 154.72 mm from the sample. Raw data were evaluated using the program EVA (Bruker-AXS, Karlsruhe, Germany).

Row | crystal form stable following storage (PXRD) [2] | Structure (SMILES) | Biopharmaceutics Classification System (BCS) class ([1]; Class II = high permeability but low solubility) | solubility behaviour [1]
1 |  | CC(C)N(CCCCOCC(=O)NS(C)(=O)=O)c1cnc(-c2ccccc2)c(-c2ccccc2)n1 [Form I, 2-{4-[N-(5,6-diphenylpyrazin-2-yl)-N-isopropylamino]butyloxy}-N-(methylsulfonyl)acetamide] | Class II | pH dependent solubility
2 | at least 14 days | CC(C)N(CCCCOCC(=O)NS(C)(=O)=O)c1cnc(-c2ccccc2)c(-c2ccccc2)n1 [Selexipag Form APO-I, 2-{4-[N-(5,6-diphenylpyrazin-2-yl)-N-isopropylamino]butyloxy}-N-(methylsulfonyl)acetamide] |  | 
